Drawing on US10392391B2 (Vertex Pharmaceuticals Incorporated, priority 2012, dated 2019), this text covers Ki for 32 molecules.

The assay addresses ATR kinase (full-length ATR) (Homo sapiens (Human), UniProt Q13535). Briefly: ATR inhibition assay (radioactive-phosphate incorporation). Format: biochemical. The essentials:
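Radiometric 33P incorporation by 5 nM full-length ATR into 800 μM target peptide with 10 μM [γ-33P]ATP, in 50 mM Tris/HCl pH 7.5, 10 mM MgCl2, 1 mM DTT, 7% DMSO, 25° C. Compound pre-incubated 10 minutes; reaction stopped after 24 hours, captured on phosphocellulose. Ki(app) from non-linear regression of initial rates.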

The mark [1] stands for this setting: Ki(app), 5 nM full-length ATR, 10 μM ATP, 25° C.

Like-named read-outs stand apart in the source and are kept apart here.

Chain of ATR kinase (full-length ATR) (Q13535 whole entry): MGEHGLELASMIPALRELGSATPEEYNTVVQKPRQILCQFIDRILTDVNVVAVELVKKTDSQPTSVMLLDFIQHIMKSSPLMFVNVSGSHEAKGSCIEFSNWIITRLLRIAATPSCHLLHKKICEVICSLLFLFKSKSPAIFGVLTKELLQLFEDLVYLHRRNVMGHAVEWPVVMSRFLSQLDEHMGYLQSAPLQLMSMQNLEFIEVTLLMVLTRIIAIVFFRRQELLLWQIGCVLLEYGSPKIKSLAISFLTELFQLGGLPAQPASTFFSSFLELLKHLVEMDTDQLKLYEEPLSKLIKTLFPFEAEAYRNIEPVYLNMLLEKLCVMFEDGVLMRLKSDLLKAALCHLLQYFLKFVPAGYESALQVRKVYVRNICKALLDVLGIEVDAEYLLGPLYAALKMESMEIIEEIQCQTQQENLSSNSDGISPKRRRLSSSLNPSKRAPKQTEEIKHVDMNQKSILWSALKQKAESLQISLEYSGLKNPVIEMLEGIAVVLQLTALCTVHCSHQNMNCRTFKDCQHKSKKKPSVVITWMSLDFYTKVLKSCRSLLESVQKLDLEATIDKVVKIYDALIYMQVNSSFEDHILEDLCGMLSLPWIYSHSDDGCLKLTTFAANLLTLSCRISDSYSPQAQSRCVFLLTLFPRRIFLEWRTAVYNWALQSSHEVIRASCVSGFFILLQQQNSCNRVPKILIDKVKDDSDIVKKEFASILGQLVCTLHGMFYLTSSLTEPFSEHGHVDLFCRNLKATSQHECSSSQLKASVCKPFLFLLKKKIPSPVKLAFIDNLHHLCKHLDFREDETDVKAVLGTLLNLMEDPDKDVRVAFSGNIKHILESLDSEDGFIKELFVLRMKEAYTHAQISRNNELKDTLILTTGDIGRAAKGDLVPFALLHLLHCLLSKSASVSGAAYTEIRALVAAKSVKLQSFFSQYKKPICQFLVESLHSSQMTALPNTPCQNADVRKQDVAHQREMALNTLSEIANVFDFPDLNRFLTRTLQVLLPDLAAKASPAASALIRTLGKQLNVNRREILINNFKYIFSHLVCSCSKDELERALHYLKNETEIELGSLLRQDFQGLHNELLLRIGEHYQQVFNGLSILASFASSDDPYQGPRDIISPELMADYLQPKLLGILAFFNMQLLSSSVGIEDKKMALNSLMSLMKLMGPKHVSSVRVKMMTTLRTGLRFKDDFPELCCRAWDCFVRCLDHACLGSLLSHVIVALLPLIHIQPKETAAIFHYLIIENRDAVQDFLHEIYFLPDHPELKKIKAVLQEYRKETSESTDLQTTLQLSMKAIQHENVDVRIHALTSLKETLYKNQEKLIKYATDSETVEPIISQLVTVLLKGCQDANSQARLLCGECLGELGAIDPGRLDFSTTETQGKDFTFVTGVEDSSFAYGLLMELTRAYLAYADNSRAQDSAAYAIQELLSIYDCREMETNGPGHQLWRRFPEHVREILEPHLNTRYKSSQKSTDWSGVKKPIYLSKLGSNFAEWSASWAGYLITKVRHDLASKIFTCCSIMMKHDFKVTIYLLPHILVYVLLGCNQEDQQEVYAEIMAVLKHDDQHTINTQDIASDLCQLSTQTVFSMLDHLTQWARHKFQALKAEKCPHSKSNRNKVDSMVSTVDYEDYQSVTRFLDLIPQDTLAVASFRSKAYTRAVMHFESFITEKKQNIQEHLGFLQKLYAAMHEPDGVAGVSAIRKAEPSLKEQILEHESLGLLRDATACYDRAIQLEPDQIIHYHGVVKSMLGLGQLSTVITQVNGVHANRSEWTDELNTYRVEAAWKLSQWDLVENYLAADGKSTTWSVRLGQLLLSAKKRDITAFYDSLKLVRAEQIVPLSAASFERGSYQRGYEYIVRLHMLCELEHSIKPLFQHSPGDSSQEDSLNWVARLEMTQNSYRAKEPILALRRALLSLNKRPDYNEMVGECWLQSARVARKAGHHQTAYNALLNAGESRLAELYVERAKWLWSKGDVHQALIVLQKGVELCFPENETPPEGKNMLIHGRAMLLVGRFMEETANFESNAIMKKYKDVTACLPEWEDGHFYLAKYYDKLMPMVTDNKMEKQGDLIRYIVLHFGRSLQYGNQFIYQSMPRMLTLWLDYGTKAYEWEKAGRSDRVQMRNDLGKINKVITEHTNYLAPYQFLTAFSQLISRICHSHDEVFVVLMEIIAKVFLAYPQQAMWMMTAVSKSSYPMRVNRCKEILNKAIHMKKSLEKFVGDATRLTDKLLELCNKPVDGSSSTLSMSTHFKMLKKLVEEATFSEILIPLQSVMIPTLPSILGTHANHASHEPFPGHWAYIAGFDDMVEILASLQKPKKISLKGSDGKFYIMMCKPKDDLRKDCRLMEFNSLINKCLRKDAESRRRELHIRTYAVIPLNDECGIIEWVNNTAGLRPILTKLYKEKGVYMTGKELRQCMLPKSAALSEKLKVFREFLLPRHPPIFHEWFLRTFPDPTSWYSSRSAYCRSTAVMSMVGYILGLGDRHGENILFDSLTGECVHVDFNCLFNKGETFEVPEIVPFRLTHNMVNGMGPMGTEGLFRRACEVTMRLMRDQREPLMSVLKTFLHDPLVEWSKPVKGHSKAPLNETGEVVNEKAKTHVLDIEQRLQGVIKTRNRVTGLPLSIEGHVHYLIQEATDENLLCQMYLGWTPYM

As to `Nc1nn2cc(F)cnc2c1C(=O)Nc1cnccc1N1CCC2(CC1)COC2` [I-N-226, N-(4-(2-oxa-7-azaspiro[3.5]nonan-7-yl)pyridin-3-yl)-2-amino-6-fluoropyrazolo[1,5-a]pyrimidine-3-carboxamide], the Ki under setting [1] lay in the range of 0.01 to 1 µM. The same measure, in the same setting: next, `CN1CCN(CC2CCN(c3c(F)cncc3NC(=O)c3c(N)nn4cc(F)cnc34)CC2)CC1=O` [I-N-171, 2-amino-6-fluoro-N-(5-fluoro-4-(4-((4-methyl-3-oxopiperazin-1-yl)methyl)piperidin-1-yl)pyridin-3-yl)pyrazolo[1,5-a]pyrimidine-3-carboxamide]: 0.01 to 1 µM; `CN1CC2(CCC1=O)CCN(c1ccncc1NC(=O)c1c(N)nn3cc(F)cnc13)CC2` [I-N-231, 2-amino-6-fluoro-N-(4-(2-methyl-3-oxo-2,9-diazaspiro[5.5]undecan-9-yl)pyridin-3-yl)pyrazolo[1,5-a]pyrimidine-3-carboxamide]: 0.01 to 1 µM; `CN(C)CC1CCN(c2ccncc2NC(=O)c2c(N)nn3cc(Cl)cnc23)CC1` [I-N-45, 2-amino-6-chloro-N-(4-(4-((dimethylamino)methyl)piperidin-1-yl)pyridin-3-yl)pyrazolo[1,5-a]pyrimidine-3-carboxamide]: 0.01 to 1 µM.

As for `CN1CCN(c2c(F)cncc2NC(=O)c2c(N)nn3cc(F)cnc23)CC1=O` [I-N-212, 2-amino-6-fluoro-N-(5-fluoro-4-(4-methyl-3-oxopiperazin-1-yl)pyridin-3-yl)pyrazolo[1,5-a]pyrimidine-3-carboxamide], the Ki under setting [1] fell in the range of 0.01 to 1 µM. The same measure, in the same setting: the same measure for `Nc1nn2cc(Cl)cnc2c1C(=O)Nc1cnccc1N1CCC(N2CCC2)CC1` [I-N-93, 2-amino-N-(4-(4-(azetidin-1-yl)piperidin-1-yl)pyridin-3-yl)-6-chloropyrazolo[1,5-a]pyrimidine-3-carboxamide]: 0.01 to 1 µM.

For `CN1CCN(c2c(F)cncc2NC(=O)c2c(N)nn3cc(C(C)(C)C#N)cnc23)CC1` [I-N-138, 2-amino-6-(2-cyanopropan-2-yl)-N-(5-fluoro-4-(4-methylpiperazin-1-yl)pyridin-3-yl)pyrazolo[1,5-a]pyrimidine-3-carboxamide], the Ki lay in the range of 1 to 5 µM. For the molecule `N#CCc1cnc2c(C(=O)Nc3cnccc3OC3CCCOC3)c(N)nn2c1` (centres unmarked) [I-O-41, 2-amino-6-(cyanomethyl)-N-(4-((tetrahydro-2H-pyran-3-yl)oxy)pyridin-3-yl)pyrazolo[1,5-a]pyrimidine-3-carboxamide], the Ki under setting [1] is under 0.01 µM.

Regarding `Nc1nn2cc(F)cnc2c1C(=O)Nc1cnccc1O[C@H]1Cc2nccn2C1` [I-O-16, (S)-2-amino-N-(4-((6,7-dihydro-5H-pyrrolo[1,2-a]imidazol-6-yl)oxy)pyridin-3-yl)-6-fluoropyrazolo[1,5-a]pyrimidine-3-carboxamide], the Ki under setting [1] was 0.01 to 1 µM. Still for that read-out and setting: the same measure for `CC(=O)N1CCC(c2ccncc2NC(=O)c2c(N)nn3cc(F)cnc23)CC1` [I-C-69, N-(4-(1-acetylpiperidin-4-yl)pyridin-3-yl)-2-amino-6-fluoropyrazolo[1,5-a]pyrimidine-3-carboxamide]: 0.01 to 1 µM. The same measure, in the same setting: next, `Nc1nn2cc(F)cnc2c1C(=O)Nc1cnccc1N1CCN(C2CCOC2)CC1` (racemic) [I-N-19, (R,S)-2-amino-6-fluoro-N-(4-(4-(tetrahydrofuran-3-yl)piperazin-1-yl)pyridin-3-yl)pyrazolo[1,5-a]pyrimidine-3-carboxamide]: 0.01 to 1 µM. As to `Nc1nn2cc(Cl)cnc2c1C(=O)Nc1cnccc1O[C@@H]1CCCNC1` [I-O-81, (R)-2-amino-6-chloro-N-(4-(piperidin-3-yloxy)pyridin-3-yl)pyrazolo[1,5-a]pyrimidine-3-carboxamide], under setting [1], the Ki is 0.01 to 1 µM.

For `Cc1nnc(C2CCN(c3ccncc3NC(=O)c3c(N)nn4cc(F)cnc34)CC2)o1` [I-N-265, 2-amino-6-fluoro-N-(4-(4-(5-methyl-1,3,4-oxadiazol-2-yl)piperidin-1-yl)pyridin-3-yl)pyrazolo[1,5-a]pyrimidine-3-carboxamide], the Ki under setting [1] lay in the range of 0.01 to 1 µM. Same read-out and setting: the same measure for `CN1CCN2CCN(c3c(F)cncc3NC(=O)c3c(N)nn4cc(F)cnc34)CC2C1=O` (centres unmarked) [I-N-240, 2-amino-6-fluoro-N-(5-fluoro-4-(8-methyl-9-oxohexahydro-1H-pyrazino[1,2-a]pyrazin-2(6H)-yl)pyridin-3-yl)pyrazolo[1,5-a]pyrimidine-3-carboxamide]: 0.01 to 1 µM; for `Nc1nn2cc(F)cnc2c1C(=O)Nc1cncc(C2CC2)c1N1CCN([C@@H]2CCOC2)CC1` [I-N-119, (R)-2-amino-N-(5-cyclopropyl-4-(4-(tetrahydrofuran-3-yl)piperazin-1-yl)pyridin-3-yl)-6-fluoropyrazolo[1,5-a]pyrimidine-3-carboxamide]: 0.01 to 1 µM; for `Nc1nn2cc(F)cnc2c1C(=O)Nc1cncc(F)c1N1CCN(C(=O)CN2CCCC2)CC1` [I-N-187, 2-amino-6-fluoro-N-(5-fluoro-4-(4-(2-(pyrrolidin-1-yl)acetyl)piperazin-1-yl)pyridin-3-yl)pyrazolo[1,5-a]pyrimidine-3-carboxamide]: 0.01 to 1 µM.

For `Cc1cc(C(=O)N2CCN(C)CC2)ccc1-c1ccncc1NC(=O)c1c(N)nn2cc(F)cnc12` [I-C-45, 2-amino-6-fluoro-N-(4-(2-methyl-4-(4-methylpiperazine-1-carbonyl)phenyl)pyridin-3-yl)pyrazolo[1,5-a]pyrimidine-3-carboxamide], the Ki under setting [1] fell in the range of 0.01 to 1 µM.

Consider `CNc1cc(OC)c(NC(=O)c2c(N)nn3cc(F)cnc23)cn1` [I-O-90, 2-amino-6-fluoro-N-(4-methoxy-6-(methylamino)pyridin-3-yl)pyrazolo[1,5-a]pyrimidine-3-carboxamide], for which the Ki under setting [1] was 0.01 to 1 µM. Consider `Cn1cc(-c2ccncc2NC(=O)c2c(N)nn3cc(F)cnc23)ccc1=O` [I-C-59, 2-amino-6-fluoro-N-(1-methyl-6-oxo-1,6-dihydro-[3,4′-bipyridin]-3′-yl)pyrazolo[1,5-a]pyrimidine-3-carboxamide], for which, under setting [1], the Ki was in the range of 0.01 to 1 µM. On the same count and under the same terms, next, `CN1CCC[C@@H]1COc1ccncc1NC(=O)c1c(N)nn2cc(Cl)cnc12` [I-O-49, (R)-2-amino-6-chloro-N-(4-((1-methylpyrrolidin-2-yl)methoxy)pyridin-3-yl)pyrazolo[1,5-a]pyrimidine-3-carboxamide]: 0.01 to 1 µM; `Nc1nn2cc(Cl)cnc2c1C(=O)Nc1cnccc1N1CCC(N2CCC3(COC3)C2)CC1` [I-N-99, N-(4-(4-(2-oxa-6-azaspiro[3.4]octan-6-yl)piperidin-1-yl)pyridin-3-yl)-2-amino-6-chloropyrazolo[1,5-a]pyrimidine-3-carboxamide]: 0.01 to 1 µM; `Cc1ncnn1-c1ccncc1NC(=O)c1c(N)nn2cc(F)cnc12` [I-N-162, 2-amino-6-fluoro-N-(4-(5-methyl-1H-1,2,4-triazol-1-yl)pyridin-3-yl)pyrazolo[1,5-a]pyrimidine-3-carboxamide]: 0.01 to 1 µM.

Turning to `Nc1nn2cc(Cl)cnc2c1C(=O)Nc1cnccc1N1CCCC(N)C1` (centres unmarked) [I-N-55, 2-amino-N-(4-(3-aminopiperidin-1-yl)pyridin-3-yl)-6-chloropyrazolo[1,5-a]pyrimidine-3-carboxamide], the Ki under setting [1] was in the range of 0.01 to 1 µM.

For the molecule `Nc1nn2cc(F)cnc2c1C(=O)Nc1cncc(F)c1N1CCCC1` [I-N-246, 2-amino-6-fluoro-N-(5-fluoro-4-(pyrrolidin-1-yl)pyridin-3-yl)pyrazolo[1,5-a]pyrimidine-3-carboxamide], under setting [1], the Ki is 0.01 to 1 µM. On the same count and under the same terms, next, `Cn1ccnc1-c1ccncc1NC(=O)c1c(N)nn2cc(F)cnc12` [I-C-55, 2-amino-6-fluoro-N-(4-(1-methyl-1H-imidazol-2-yl)pyridin-3-yl)pyrazolo[1,5-a]pyrimidine-3-carboxamide]: 0.01 to 1 µM; `CN(C)[C@@H]1CCN(C(=O)C2CCN(c3c(F)cncc3NC(=O)c3c(N)nn4cc(F)cnc34)CC2)C1` [I-G-11, (R)-2-amino-N-(4-(4-(3-(dimethylamino)pyrrolidine-1-carbonyl)piperidin-1-yl)-5-fluoropyridin-3-yl)-6-fluoropyrazolo[1,5-a]pyrimidine-3-carboxamide]: 0.01 to 1 µM; `CN1CCN(C(=O)c2ccc(-c3ccncc3NC(=O)c3c(N)nn4cc(F)cnc34)cn2)CC1` [I-C-19, 2-amino-6-fluoro-N-(6-(4-methylpiperazine-1-carbonyl)-[3,4′-bipyridin]-3′-yl)pyrazolo[1,5-a]pyrimidine-3-carboxamide]: 0.01 to 1 µM. On to `CN1CCc2c(cncc2NC(=O)c2c(N)nn3cc(F)cnc23)C1` [I-C-8, 2-amino-6-fluoro-N-(7-methyl-5,6,7,8-tetrahydro-2,7-naphthyridin-4-yl)pyrazolo[1,5-a]pyrimidine-3-carboxamide], for which, under setting [1], the Ki was 0.01 to 1 µM. Regarding `CN1CCC(c2ccncc2NC(=O)c2c(N)nn3cc(C(C)(C)C#N)cnc23)CC1` [I-C-23, 2-amino-6-(2-cyanopropan-2-yl)-N-(4-(1-methylpiperidin-4-yl)pyridin-3-yl)pyrazolo[1,5-a]pyrimidine-3-carboxamide], the Ki lay in the range of 1 to 5 µM. For `Nc1nn2cc(F)cnc2c1C(=O)Nc1cncc(F)c1N1CCC(CN2CCOCC2)CC1` [I-N-149, 2-amino-6-fluoro-N-(5-fluoro-4-(4-(morpholinomethyl)piperidin-1-yl)pyridin-3-yl)pyrazolo[1,5-a]pyrimidine-3-carboxamide], under setting [1], the Ki is 0.01 to 1 µM.

Turning to `Nc1nn2cc(F)cnc2c1C(=O)Nc1cncc(F)c1N1CCCCC1` [I-N-270, 2-amino-6-fluoro-N-(5-fluoro-4-(piperidin-1-yl)pyridin-3-yl)pyrazolo[1,5-a]pyrimidine-3-carboxamide], the Ki under setting [1] is 0.01 to 1 µM. Still for that read-out and setting: the same measure for `Nc1nn2cc(F)cnc2c1C(=O)Nc1cncc(F)c1N1CCC(C(=O)NC2COC2)CC1` [I-G-37, 2-amino-6-fluoro-N-(5-fluoro-4-(4-(oxetan-3-ylcarbamoyl)piperidin-1-yl)pyridin-3-yl)pyrazolo[1,5-a]pyrimidine-3-carboxamide]: 0.01 to 1 µM.
